US20240199534A1 (Mitochondria Emotion, Inc., priority 2021, published 2024)
Like-named read-outs stand apart in the source and are kept apart here. Each block holds one molecule with its values, some of them ahead of it.

Legend:
MFN2 = molecular target: T1, MFN2 (Mus musculus, UniProt Q80U63); experiment: Mitofusin activation (MFN activity), EC50; format: cell-based; conditions: stereoisomeric configurations of Compound 2
T1 sequence (Q80U63 1-757): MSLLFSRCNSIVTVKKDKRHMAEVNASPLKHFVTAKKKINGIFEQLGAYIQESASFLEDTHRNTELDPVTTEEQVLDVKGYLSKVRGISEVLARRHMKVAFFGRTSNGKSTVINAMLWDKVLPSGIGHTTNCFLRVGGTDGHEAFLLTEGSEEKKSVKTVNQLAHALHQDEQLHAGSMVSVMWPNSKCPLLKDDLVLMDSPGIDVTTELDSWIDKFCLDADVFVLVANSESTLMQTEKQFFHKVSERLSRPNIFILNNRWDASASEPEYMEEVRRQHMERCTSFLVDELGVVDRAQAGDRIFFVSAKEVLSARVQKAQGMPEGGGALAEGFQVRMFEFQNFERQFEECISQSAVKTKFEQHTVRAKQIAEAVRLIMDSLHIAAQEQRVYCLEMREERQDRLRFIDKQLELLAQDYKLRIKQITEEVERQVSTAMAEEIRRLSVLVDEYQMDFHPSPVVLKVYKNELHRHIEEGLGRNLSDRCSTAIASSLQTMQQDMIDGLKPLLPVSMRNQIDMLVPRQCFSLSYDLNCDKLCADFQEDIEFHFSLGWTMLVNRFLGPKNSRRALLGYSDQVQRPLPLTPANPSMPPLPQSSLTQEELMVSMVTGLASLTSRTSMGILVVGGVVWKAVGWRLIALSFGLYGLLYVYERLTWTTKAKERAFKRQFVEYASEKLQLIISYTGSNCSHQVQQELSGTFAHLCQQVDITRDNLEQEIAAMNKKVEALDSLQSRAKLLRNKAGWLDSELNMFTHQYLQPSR
Procedure: Mitochondria were then stained with MitoTracker Orange (200 nM; M7510; Invitrogen, Carlsbad, CA, USA). Nuclei were stained with Hoescht (10 μg/ml; Invitrogen, Thermo Fisher Scientific Cat: #H3570). […] Response curves were interpolated using the sigmoidal model using Prism 8 software.
Testing details for the MFN activity and PAMPA assay are provided in U.S. Patent Applications 2020/034566 and 2020/0345669, incorporated herein by reference.

[1] = In vivo pharmacokinetics IV and PO (Table 1A); design: species or system mouse; conditions: for Tmax: PO, mouse plasma

Structure (SMILES): O=C(N[C@H]1CC[C@H](O)CC1)[C@@H]1C[C@H]1CCCc1ccccc1 [Compound 2A, (1R,2R)-N-((1r,4R)-4-hydroxycyclohexyl)-2-(3-phenylpropyl)cyclopropane-1-carboxamide]
activity toward promoting mitofusin activation (MFN2): active toward promoting mitofusin activation

Tmax ([1]; 50 mg/kg): 30 min
Structure (SMILES): O=C(CCCCCc1ccccc1)N[C@H]1CC[C@H](O)CC1 [Compound 1, N-(trans-4-hydroxycyclohexyl)-6-phenylhexanamide, reference compound]

Vd ([1]; male, CD-1, mouse, plasma, iv, 10 mg/kg, read-out: Vdss): 0.6 L/kg
bioavailability ([1]; male, CD-1, mouse, plasma, po, 50 mg/kg): 59%
MRT ([1]; male, CD-1, mouse, plasma, single 50 mg/kg oral dose, read-out: mean tissue residence time (MRT)): 215 min
Tmax ([1]; male, CD-1, 50 mg/kg, read-out: Tmax): 30 min
Structure (SMILES): O=C(N[C@H]1CC[C@H](O)CC1)C1CC1CCCc1ccccc1 (mixture of isomers) [Compound 2, N-((1r,4r)-4-hydroxycyclohexyl)-2-(3-phenylpropyl)cyclopropane-1-carboxamide]
